The text below walks through data of patent US10968203B2, “Pyrimidinyl-pyridyloxy-naphthyl compounds and methods of treating IRE1-related diseases and disorders” (Genentech, Inc., priority 2017, dated 2021).

pIC50: −log10 of the molar value. Counter-ions that a name gives are not always drawn. Like-named read-outs stand apart in the source and are kept apart here.

The test system of this experiment is XBP1s-luc 293 LUC. In words: cellular PD assay, XBP1s-LUC reporter (Example 903). Particulars: read-out: XBP1s-luc 293 LUC (IC50). Format: cell-based. The method, boiled down:
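A luciferase fusion, in frame and expressed only when the XBP1 transcript is spliced, served as the readout of cellular IRE1α activity in an XBP1-Luc reporter line.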

As to `Cc1ccc2c(NC(=O)CC(F)(F)F)cccc2c1Oc1ncccc1-c1ccnc(N[C@H]2CCCNC2)n1` [Example 252, (S)-3,3,3-Trifluoro-N-(6-methyl-5-(3-(2-(piperidin-3-ylamino)pyrimidin-4-yl)pyridin-2-yloxy)naphthalen-1-yl)propanamide], the negative logarithm of the IC50 (pIC50) (Table 1) was 6.87.

For the molecule `COc1cccc(CS(=O)(=O)Nc2c(F)ccc3c(Oc4ncccc4-c4ccnc(N[C@H]5CCCNC5)n4)c(C)ccc23)c1` [Example 429, (S)—N-(2-Fluoro-6-methyl-5-((3-(2-(piperidin-3-ylamino)pyrimidin-4-yl)pyridin-2-yl)oxy)naphthalen-1-yl)-1-(3-methoxyphenyl)methanesulfonamide hydrochloride], where the note is “Table 2”, the pIC50 is 8.30.

On to `CCCS(=O)(=O)Nc1cccc2c(Oc3ncccc3-c3ccnc(N[C@H]4CC[C@H](C)NC4)n3)c(C)ccc12` (single isomer, unassigned) [Example 196], for which, where the note is “Table 1”, the pIC50 was 6.79.

For `Cc1ccc2c(NC(=O)C3CC3)c(F)ccc2c1Oc1ncccc1-c1ccnc(N[C@H]2CCCNC2)n1` [Example 271, (S)—N-(2-Fluoro-6-methyl-5-((3-(2-(piperidin-3-ylamino)pyrimidin-4-yl)pyridin-2-yl)oxy)naphthalen-1-yl)cyclopropanecarboxamide], the pIC50 (Table 1) is 6.57.

Turning to `Cc1ccc2c(NC(=O)C3(C)CC3)cccc2c1Oc1ncccc1-c1ccnc(N[C@H]2CCCNC2)n1` [Example 154, (S)-1-Methyl-N-(6-methyl-5-((3-(2-(piperidin-3-ylamino)pyrimidin-4-yl)pyridin-2-yl)oxy)naphthalen-1-yl)cyclopropane-1-carboxamide], the pIC50 (Table 1) was 6.62.

For `Cc1ccc2c(NS(=O)(=O)CBr)cccc2c1Oc1ncccc1-c1ccnc(N[C@H]2CCCNC2)n1` [Example 172, (S)-1-Bromo-N-(6-methyl-5-(3-(2-(piperidin-3-ylamino)pyrimidin-4-yl)pyridin-2-yloxy)naphthalen-1-yl)methanesulfonamide], where the note is “Table 1”, the pIC50 is 6.41.

As to `Cc1ccc2c(NS(=O)(=O)CCCF)c(F)ccc2c1Oc1ncccc1-c1ccnc(N[C@H]2CCCNC2)n1` [Example 406, (S)-3-Fluoro-N-(2-fluoro-6-methyl-5-((3-(2-(piperidin-3-ylamino)pyrimidin-4-yl)pyridin-2-yl)oxy)naphthalen-1-yl)propane-1-sulfonamide hydrochloride], the pIC50 (Table 2) is 7.51.

For the molecule `Cc1ccc2c(NS(=O)(=O)c3ccc4c(c3)OCO4)c(F)ccc2c1Oc1ncccc1-c1ccnc(N[C@H]2CCCNC2)n1` [Example 403, N-[2-Fluoro-6-methyl-5-[[3-[2-[[(3S)-3-piperidyl]amino]pyrimidin-4-yl]-2-pyridyl]oxy]-1-naphthyl]-1,3-benzodioxole-5-sulfonamide], the pIC50 (Table 2) was 7.36.

Take `Cc1ccc2c(NS(=O)(=O)CCC(C)(F)F)c(F)ccc2c1Oc1ncccc1-c1ccnc(N[C@H]2CCCNC2)n1` [Example 442, (S)-3,3-Difluoro-N-(2-fluoro-6-methyl-5-((3-(2-(piperidin-3-ylamino)pyrimidin-4-yl)pyridin-2-yl)oxy)naphthalen-1-yl)butane-1-sulfonamide hydrochloride]: the pIC50 (Table 2) was 7.40.

As to `Cc1ccc2c(NS(=O)(=O)CCC(F)(F)F)cccc2c1Oc1ncccc1-c1ccnc(N[C@@H]2CNC[C@H](C)C2)n1` [Example 481, 3,3,3-Trifluoro-N-(6-methyl-5-((3-(2-(((3S,5R)-5-methylpiperidin-3-yl)amino)pyrimidin-4-yl)pyridin-2-yl)oxy)naphthalen-1-yl)propane-1-sulfonamide], for the setting “Table 2”, the pIC50 was 7.15.

As to `Cc1ccc2c(NC(=O)[C@@H]3CCC(C)C3)cccc2c1Oc1ncccc1-c1ccnc(N[C@H]2CCCNC2)n1` (single isomer, unassigned) [Example 277], under “Table 1”, the pIC50 is 6.77.

`Cc1ccc2c(NCC3CC3)cccc2c1Oc1ncccc1-c1ccnc(N[C@H]2CCCNC2)n1` [Example 223, (S)-4-(2-((5-((Cyclopropylmethyl)amino)-2-methylnaphthalen-1-yl)oxy)pyridin-3-yl)-N-(piperidin-3-yl)pyrimidin-2-amine]: under “Table 1”, the pIC50 is 6.67.

On to `Cc1ccc2c(NC(=O)C3CC34CCCCC4)cccc2c1Oc1ncccc1-c1ccnc(N[C@H]2CCCNC2)n1` (mixture of isomers) [Example 281, N-(6-Methyl-5-((3-(2-(((S)-piperidin-3-yl)amino)pyrimidin-4-yl)pyridin-2-yl)oxy)naphthalen-1-yl)spiro[2.5]octane-1-carboxamide], for which the pIC50 (Table 1) was 7.05.

For the molecule `Cc1ccc2c(NS(=O)(=O)C=C3CCC3)c(F)ccc2c1Oc1ncccc1-c1ccnc(N[C@H]2CCCNC2)n1` [Example 413, 1-Cyclobutylidene-N-[2-fluoro-6-methyl-5-[[3-[2-[[(3S)-3-piperidyl]amino]pyrimidin-4-yl]-2-pyridyl]oxy]-1-naphthyl]methanesulfonamide hydrochloride], the pIC50 (Table 2) was 7.30.

Consider `Cc1ccc2c(NC(=O)c3ccccc3)cccc2c1Oc1ncccc1-c1ccnc(N[C@H]2CCCNC2)n1` [Example 115, (S)—N-(6-Methyl-5-((3-(2-(piperidin-3-ylamino)pyrimidin-4-yl)pyridin-2-yl)oxy)naphthalen-1-yl)benzamide hydrochloride], for which, where the note is “Table 1”, the pIC50 is 6.58.

Turning to `Cc1ccc2c(NS(=O)(=O)Cc3nn(C)cc3Cl)c(F)ccc2c1Oc1ncccc1-c1ccnc(N[C@H]2CCCNC2)n1` [Example 448, 1-(4-Chloro-1-methyl-pyrazol-3-yl)-N-[2-fluoro-6-methyl-5-[[3-[2-[[(3S)-3-piperidyl]amino]pyrimidin-4-yl]-2-pyridyl]oxy]-1-naphthyl]methanesulfonamide hydrochloride], the pIC50 (Table 2) was 7.72.

Turning to `Cc1ccc2c(NC(=O)CC#N)cccc2c1Oc1ncccc1-c1ccnc(N[C@H]2CCCNC2)n1` [Example 183, (S)-2-Cyano-N-(6-methyl-5-((3-(2-(piperidin-3-ylamino)pyrimidin-4-yl)pyridin-2-yl)oxy)naphthalen-1-yl)acetamide], the pIC50 (Table 1) was 6.59.

For the molecule `Cc1ccc2c(N3CC[C@H](CF)C3=O)cccc2c1Oc1ncccc1-c1ccnc(N[C@H]2CCCNC2)n1` [Example 316, (S)-3-(Fluoromethyl)-1-(6-methyl-5-((3-(2-(((S)-piperidin-3-yl)amino)pyrimidin-4-yl)pyridin-2-yl)oxy)naphthalen-1-yl)pyrrolidin-2-one], where the note is “Table 1”, the pIC50 was 6.67.

Regarding `CO[C@@H](CNc1cccc2c(Oc3ncccc3-c3ccnc(N[C@H]4CCCNC4)n3)c(C)ccc12)C(F)(F)F` [Example 326, 4-(2-((2-Methyl-5-(((S)-3,3,3-trifluoro-2-methoxypropyl)amino)naphthalen-1-yl)oxy)pyridin-3-yl)-N—((S)-piperidin-3-yl)pyrimidin-2-amine], the pIC50 (Table 1) is 7.55.

Take `CO[C@H]1CNC[C@@H](Nc2nccc(-c3cccnc3Oc3c(C)ccc4c(NS(=O)(=O)Cc5ccccc5)cccc34)n2)C1` [Example 161, N-(5-((3-(2-(((3S,5R)-5-Methoxypiperidin-3-yl)amino)pyrimidin-4-yl)pyridin-2-yl)oxy)-6-methylnaphthalen-1-yl)-1-phenylmethanesulfonamide]: under “Table 1”, the pIC50 is 7.34.

In the case of `CCCS(=O)(=O)Nc1cc(C)c(Oc2ncccc2-c2ccnc(N[C@H]3CCCNC3)n2)c2ccccc12` [Example 164, (S)—N-(3-Methyl-4-((3-(2-(piperidin-3-ylamino)pyrimidin-4-yl)pyridin-2-yl)oxy)naphthalen-1-yl)propane-1-sulfonamide], the pIC50 (Table 1) is 6.83.

In the case of `Cc1ccc2c(NC[C@H](C)O)cccc2c1Oc1ncccc1-c1ccnc(N[C@H]2CCCNC2)n1` [Example 301, (S)-1-((6-Methyl-5-((3-(2-((S)-piperidin-3-ylamino)pyrimidin-4-yl)pyridin-2-yl)oxy)naphthalen-1-yl)amino)propan-2-ol], the pIC50 (Table 1) was 6.37.

For the molecule `CCN(C)S(=O)(=O)Nc1cccc2c(Oc3ncccc3-c3ccnc(N[C@H]4CCCNC4)n3)c(C)ccc12` [Example 113, 4-[2-[[5-[[Ethyl(methyl)sulfamoyl]amino]-2-methyl-1-naphthyl]oxy]-3-pyridyl]-2-[[(3S)-3-piperidyl]amino]pyrimidine hydrochloride], the pIC50 (Table 1) is 6.46.

`Cc1ccc2c(NS(=O)(=O)C[C@H]3CCCO3)c(F)ccc2c1Oc1ncccc1-c1ccnc(N[C@H]2CCCNC2)n1` (single isomer, unassigned) [Example 417, hydrochloride]: the pIC50 (Table 2) is 7.13.

Regarding `Cc1cc(NS(=O)(=O)C2CCCC2)c2ccccc2c1Oc1ncccc1-c1ccnc(N[C@H]2CC[C@H](N)CC2)n1` [Example 119, N-(4-((3-(2-(((trans)-4-aminocyclohexyl)amino)pyrimidin-4-yl)pyridin-2-yl)oxy)-3-methylnaphthalen-1-yl)cyclopentanesulfonamide hydrochloride], the pIC50 (Table 1) is 6.51.

Take `Cc1ccc2c(NS(=O)(=O)Cc3ccccc3)cccc2c1Oc1ncccc1-c1ccnc(N[C@@H]2CNC[C@H](F)C2)n1` [Example 148, N-(5-((3-(2-(((3S,5R)-5-Fluoropiperidin-3-yl)amino)pyrimidin-4-yl)pyridin-2-yl)oxy)-6-methylnaphthalen-1-yl)-1-phenylmethanesulfonamide]: for the setting “Table 1”, the pIC50 was 6.68.

`CCn1ccc(Nc2cccc3c(Oc4ncccc4-c4ccnc(N[C@H]5CCCNC5)n4)c(C)ccc23)n1` [Example 272, (S)-4-(2-((5-((1-Ethyl-1H-pyrazol-3-yl)amino)-2-methylnaphthalen-1-yl)oxy)pyridin-3-yl)-N-(piperidin-3-yl)pyrimidin-2-amine]: the pIC50 (Table 1) was 6.33.

Turning to `Cc1ccc2c(NC(=O)[C@@H]3CC3C3CC3)cccc2c1Oc1ncccc1-c1ccnc(N[C@H]2CCCNC2)n1` (single isomer, unassigned) [Example 274], the pIC50 (Table 1) was 7.00.

In the case of `Cc1ccc2c(NCC[C@H]3CC3(F)F)cccc2c1Oc1ncccc1-c1ccnc(N[C@H]2CCCNC2)n1` (single isomer, unassigned) [Example 292], under “Table 1”, the pIC50 was 6.53.
